Results reported in publication PMC12054466 (RSC Advances, 2025).
Read-outs that look alike come from different tables or passages of the source.

Tests used:
[1] = assay type: binding
[2] = rabbits, single oral dose 10 mg kg^−1, n = 5, mean; unit as in Table 4

CC(C)(C(=O)O)c1ccc(C(O)CCCN2CCC(C(O)(c3ccccc3)c3ccccc3)CC2)cc1 (stereo not shown) [fexofenadine, Fexofenadine]
Ksv (Stern–Volmer quenching constant) ([1]; 298 K (25 °C)): 1.36 10^6 M^−1 | Ksv (Stern–Volmer quenching constant) ([1]; 303 K): 1.09 10^6 M^−1 | Ksv (Stern–Volmer quenching constant) ([1]; 308 K (35 °C)): 0.95 10^6 M^−1 | λz [2]: 0.06 h
